Measurements published in US10647713B2 (Nimbus Lakshmi, Inc., priority 2016, dated 2020).

target: human TYK2 (JH2domain-pseudokinase) (Homo sapiens (Human), UniProt P29597); test: TYK2 JH2 Domain Binding Assay (KINOMEscan, DiscoveRx); details: 11-point dilution, duplicate
Summary of the method: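 Kd from duplicate 11-point 3-fold dilutions starting at 30,000 nM, fitted by Hill equation with slope fixed at −1. Compounds (final 0.9% DMSO) displace DNA-tagged HEK293-expressed TYK2 JH2 fusion (<0.1 nM) from ligand-coated beads over 1 h at room temperature; eluted kinase read by qPCR.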

Sequence of human TYK2 (JH2domain-pseudokinase) (P29597 556-888): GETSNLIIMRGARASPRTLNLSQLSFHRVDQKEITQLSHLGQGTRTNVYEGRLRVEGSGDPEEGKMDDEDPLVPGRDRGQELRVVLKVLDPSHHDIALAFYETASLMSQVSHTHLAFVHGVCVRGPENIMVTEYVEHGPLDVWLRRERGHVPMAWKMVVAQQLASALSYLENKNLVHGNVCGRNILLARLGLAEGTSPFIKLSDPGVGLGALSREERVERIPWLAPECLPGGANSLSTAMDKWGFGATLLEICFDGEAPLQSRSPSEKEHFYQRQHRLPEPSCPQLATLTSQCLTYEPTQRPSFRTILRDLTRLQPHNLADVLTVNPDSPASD

| Kd [nM] | Compound |
| --- | --- |
| 0.5 to 1 | COc1c(Nc2cc(Nc3cnc(C(C)(C)OC)c(C#N)n3)nc3[nH]c(C)nc23)cccc1-c1nnn(C)n1 [I-204, 6-((7-((2-methoxy-3-(2-methyl-2H-tetrazol-5-yl)phenyl)amino)-2-methyl-3H-imidazo[4,5-b]pyridin-5-yl)amino)-3-(2-methoxypropan-2-yl)pyrazine-2-carbonitrile] |
| 1 to 10 | COc1c(Nc2cc(Nc3cc(C(F)(F)F)n(C)n3)nc3[nH]c(C(F)F)nc23)cccc1-c1ncn(C)n1 [I-206, 2-(difluoromethyl)-N7-(2-methoxy-3-(1-methyl-1H-1,2,4-triazol-3-yl)phenyl)-N5-(1-methyl-5-(trifluoromethyl)-1H-pyrazol-3-yl)-3H-imidazo[4,5-b]pyridine-5,7-diamine] |
| 1 to 10 | Cc1nc2c(Nc3ccc(-c4cncn4C)cc3N(C)S(C)(=O)=O)cc(NC(=O)[C@@H]3C[C@@H]3F)nc2[nH]1 [I-208, (1S,2S)-2-fluoro-N-(2-methyl-7-((4-(1-methyl-1H-imidazol-5-yl)-2-(N-methylmethylsulfonamido)phenyl)amino)-3H-imidazo[4,5-b]pyridin-5-yl)cyclopropane-1-carboxamide] |
| 0.1 to 0.5 | Cc1nc2c(Nc3ccc(-c4cnn(C)c4)cc3N(C)S(C)(=O)=O)cc(NC(=O)[C@@H]3C[C@@H]3F)nc2[nH]1 [I-209, (1S,2S)-2-fluoro-N-(2-methyl-7-((4-(1-methyl-1H-pyrazol-4-yl)-2-(N-methylmethylsulfonamido)phenyl)amino)-3H-imidazo[4,5-b]pyridin-5-yl)cyclopropane-1-carboxamide] |
| 0.1 to 0.5 | Cn1ccc(-c2ccc(Nc3cc(NC(=O)[C@@H]4C[C@@H]4F)nc4[nH]c(C(F)F)nc34)c(S(C)(=O)=O)c2)n1 [I-210, (1S,2S)—N-(2-(difluoromethyl)-7-((4-(1-methyl-1H-pyrazol-3-yl)-2-(methylsulfonyl)phenyl)amino)-3H-imidazo[4,5-b]pyridin-5-yl)-2-fluorocyclopropane-1-carboxamide] |
| 0.1 to 0.5 | Cc1nc2c(Nc3ccc(-c4ccn(C)n4)cc3S(C)(=O)=O)cc(NC(=O)[C@@H]3C[C@@H]3F)nc2[nH]1 [I-211, (1S,2S)-2-fluoro-N-(2-methyl-7-((4-(1-methyl-1H-pyrazol-3-yl)-2-(methylsulfonyl)phenyl)amino)-3H-imidazo[4,5-b]pyridin-5-yl)cyclopropane-1-carboxamide] |
| < 0.1 | Cn1cncc1-c1ccc(Nc2cc(NC(=O)C3CC3)nc3[nH]c(C(F)F)nc23)c(S(C)(=O)=O)c1 [I-214, N-(2-(difluoromethyl)-7-((4-(1-methyl-1H-imidazol-5-yl)-2-(methylsulfonyl)phenyl)amino)-3H-imidazo[4,5-b]pyridin-5-yl)cyclopropanecarboxamide] |
| < 0.1 | Cc1nc2c(Nc3ccc(-c4cncn4C)cc3S(C)(=O)=O)cc(NC(=O)C3CC3)nc2[nH]1 [I-215, N-(2-methyl-7-((4-(1-methyl-1H-imidazol-5-yl)-2-(methylsulfonyl)phenyl)amino)-3H-imidazo[4,5-b]pyridin-5-yl)cyclopropanecarboxamide] |
| < 0.1 | Cc1cc(-c2ccc(Nc3cc(NC(=O)C4CC4)nc4[nH]c(C(F)F)nc34)c(S(C)(=O)=O)c2)nn1C [I-216, N-(2-(difluoromethyl)-7-((4-(1,5-dimethyl-1H-pyrazol-3-yl)-2-(methylsulfonyl)phenyl)amino)-3H-imidazo[4,5-b]pyridin-5-yl)cyclopropanecarboxamide] |
| < 0.1 | Cc1nc2c(Nc3ccc(-c4cc(C)n(C)n4)cc3S(C)(=O)=O)cc(NC(=O)C3CC3)nc2[nH]1 [I-217, N-(7-((4-(1,5-dimethyl-1H-pyrazol-3-yl)-2-(methylsulfonyl)phenyl)amino)-2-methyl-3H-imidazo[4,5-b]pyridin-5-yl)cyclopropanecarboxamide] |
| 0.1 to 0.5 | CN(c1cc([C@H]2CCCCO2)ccc1Nc1cc(NC(=O)C2CC2)nc2[nH]c(C(F)F)nc12)S(C)(=O)=O [I-218, (R)—N-(2-(difluoromethyl)-7-((2-(N-methylmethylsulfonamido)-4-(tetrahydro-2H-pyran-2-yl)phenyl)amino)-3H-imidazo[4,5-b]pyridin-5-yl)cyclopropanecarboxamide] |
| 0.1 to 0.5 | CN(c1cc([C@@H]2CCCCO2)ccc1Nc1cc(NC(=O)C2CC2)nc2[nH]c(C(F)F)nc12)S(C)(=O)=O [I-219, (S)—N-(2-(difluoromethyl)-7-((2-(N-methylmethylsulfonamido)-4-(tetrahydro-2H-pyran-2-yl)phenyl)amino)-3H-imidazo[4,5-b]pyridin-5-yl)cyclopropanecarboxamide] |
| 1 to 10 | CS(=O)(=O)c1cc(C2CCC2)ccc1Nc1cc(NC(=O)C2CC2)nc2[nH]c(C(F)F)nc12 [I-220, N-(7-((4-cyclobutyl-2-(methylsulfonyl)phenyl)amino)-2-(difluoromethyl)-3H-imidazo[4,5-b]pyridin-5-yl)cyclopropanecarboxamide] |
| 0.5 to 1 | Cc1nc2c(Nc3ccc(C4CCC4)cc3S(C)(=O)=O)cc(NC(=O)C3CC3)nc2[nH]1 [I-221, N-(7-((4-cyclobutyl-2-(methylsulfonyl)phenyl)amino)-2-methyl-3H-imidazo[4,5-b]pyridin-5-yl)cyclopropanecarboxamide] |
| 0.1 to 0.5 | COCc1ccc(Nc2cc(NC(=O)C3CC3)nc3[nH]c(C(F)F)nc23)c(S(C)(=O)=O)c1 [I-222, N-(2-(difluoromethyl)-7-((4-(methoxymethyl)-2-(methylsulfonyl)phenyl)amino)-3H-imidazo[4,5-b]pyridin-5-yl)cyclopropanecarboxamide] |
| 0.1 to 0.5 | COCc1ccc(Nc2cc(NC(=O)C3CC3)nc3[nH]c(C)nc23)c(S(C)(=O)=O)c1 [I-223, N-(7-((4-(methoxymethyl)-2-(methylsulfonyl)phenyl)amino)-2-methyl-3H-imidazo[4,5-b]pyridin-5-yl)cyclopropanecarboxamide] |
| < 0.1 | Cc1nc2c(Nc3ccc(-c4ccn(C)n4)cc3S(C)(=O)=O)cc(NC(=O)[C@@H]3C[C@@H]3F)nc2[nH]1 [I-224, (1S,2S)-2-fluoro-N-(2-methyl-7-((4-(1-methyl-1H-pyrazol-3-yl)-2-(methylsulfonyl)phenyl)amino)-3H-imidazo[4,5-b]pyridin-5-yl)cyclopropane-1-carboxamide] |
| 0.1 to 0.5 | Cc1nc2c(Nc3ccc(-c4ccn(C)n4)cc3S(C)(=O)=O)cc(NC(=O)[C@H]3C[C@H]3F)nc2[nH]1 [I-225, (1R,2R)-2-fluoro-N-(2-methyl-7-((4-(1-methyl-1H-pyrazol-3-yl)-2-(methylsulfonyl)phenyl)amino)-3H-imidazo[4,5-b]pyridin-5-yl)cyclopropane-1-carboxamide] |
| 0.1 to 0.5 | Cc1nc2c(Nc3ccc(C4CCOCC4)cc3S(C)(=O)=O)cc(NC(=O)C3CC3)nc2[nH]1 [I-226, N-(2-methyl-7-((2-(methylsulfonyl)-4-(tetrahydro-2H-pyran-4-yl)phenyl)amino)-3H-imidazo[4,5-b]pyridin-5-yl)cyclopropanecarboxamide] |
| 0.1 to 0.5 | Cc1nc2c(Nc3ccc(-c4cn(C)cn4)cc3S(C)(=O)=O)cc(NC(=O)[C@H]3CC3(F)F)nc2[nH]1 [I-227, (R)-2,2-difluoro-N-(2-methyl-7-((4-(1-methyl-1H-imidazol-4-yl)-2-(methylsulfonyl)phenyl)amino)-3H-imidazo[4,5-b]pyridin-5-yl)cyclopropane-1-carboxamide] |
| 1 to 10 | Cc1nc2c(Nc3ccc(-c4cn(C)cn4)cc3S(C)(=O)=O)cc(NC(=O)[C@@H]3CC3(F)F)nc2[nH]1 [I-228, (S)-2,2-difluoro-N-(2-methyl-7-((4-(1-methyl-1H-imidazol-4-yl)-2-(methylsulfonyl)phenyl)amino)-3H-imidazo[4,5-b]pyridin-5-yl)cyclopropane-1-carboxamide] |
| 1 to 10 | CS(=O)(=O)N(c1ccccc1Nc1cc(Nc2cccc(C#N)n2)nc2[nH]c(C(F)F)nc12)C(F)F [I-229, N-(2-((5-((6-cyanopyridin-2-yl)amino)-2-(difluoromethyl)-3H-imidazo[4,5-b]pyridin-7-yl)amino)phenyl)-N-(difluoromethyl)methanesulfonamide] |
| 0.5 to 1 | CN(c1cc(-c2cnn(C)c2)ccc1Nc1cc(NC(=O)[C@@H]2CC2(F)F)nc2[nH]c(C(F)F)nc12)S(C)(=O)=O [I-230, (S)—N-(2-(difluoromethyl)-7-((4-(1-methyl-1H-pyrazol-4-yl)-2-(N-methylmethylsulfonamido)phenyl)amino)-3H-imidazo[4,5-b]pyridin-5-yl)-2,2-difluorocyclopropane-1-carboxamide] |
| 1 to 10 | CN(c1cc(-c2cnn(C)c2)ccc1Nc1cc(NC(=O)[C@H]2CC2(F)F)nc2[nH]c(C(F)F)nc12)S(C)(=O)=O [I-231, (R)—N-(2-(difluoromethyl)-7-((4-(1-methyl-1H-pyrazol-4-yl)-2-(N-methylmethylsulfonamido)phenyl)amino)-3H-imidazo[4,5-b]pyridin-5-yl)-2,2-difluorocyclopropane-1-carboxamide] |
| 0.1 to 0.5 | CS(=O)(=O)c1cc(C2CCOCC2)ccc1Nc1cc(NC(=O)C2CC2)nc2[nH]c(C(F)F)nc12 [I-232, N-(2-(difluoromethyl)-7-((2-(methylsulfonyl)-4-(tetrahydro-2H-pyran-4-yl)phenyl)amino)-3H-imidazo[4,5-b]pyridin-5-yl)cyclopropanecarboxamide] |
| 0.1 to 0.5 | Cc1nc2c(Nc3ccc(-c4cnn(C)c4)cc3N(C)S(C)(=O)=O)cc(NC(=O)[C@@H]3CC3(F)F)nc2[nH]1 [I-233, (S)-2,2-difluoro-N-(2-methyl-7-((4-(1-methyl-1H-pyrazol-4-yl)-2-(N-methylmethylsulfonamido)phenyl)amino)-3H-imidazo[4,5-b]pyridin-5-yl)cyclopropane-1-carboxamide] |
| 1 to 10 | Cc1nc2c(Nc3ccc(-c4cnn(C)c4)cc3N(C)S(C)(=O)=O)cc(NC(=O)[C@H]3CC3(F)F)nc2[nH]1 [I-234, (R)-2,2-difluoro-N-(2-methyl-7-((4-(1-methyl-1H-pyrazol-4-yl)-2-(N-methylmethylsulfonamido)phenyl)amino)-3H-imidazo[4,5-b]pyridin-5-yl)cyclopropane-1-carboxamide] |

| Compound | Kd [nM] |
| --- | --- |
| CS(=O)(=O)c1cc(Cl)ccc1Nc1cc(NC(=O)[C@H]2C[C@H]2F)nc2[nH]c(C(F)F)nc12 [I-205] | 0.5 to 1 |
